Here are results for 2 compounds from publication PMC8011576 (Nature biomedical engineering, 2020).

The test system of one data set is OCT2. Put plainly: Western blot of OCT2 in Kidney Chip. The settings on record: cisplatin exposure, Western blot vs controls. It counts as cell-based, human.
The conditions of data set [1]: cited from earlier work.
The subject of data set [2] is first pass human Organ Chips. The following applies: nicotine exposure, linked Gut, Liver, Kidney Chips.
For data set [3] the following is noted: 396±16 μM nicotine infused into Gut Chip lumen for 84 hrs, MS.
The next data set relates to CYP3A4. The settings on record: nicotine exposure, linked chips.
The next data set has as its system Gut Chip. The following applies: nicotine in epithelial lumen.
The nature of data set [4]: Human clinical nicotine PK. It counts as in vivo. The following applies: blood, oral, 16 μM.
The test system of the next data set is Liver Chip. Nature of the data set: Albumin production in Liver Chip. The following applies: nicotine exposure, linked chips. In kind it is cell-based, human.
Data set [5] concerns intestinal epithelial cells and endothelial cells in Transwell inserts. The settings on record: nicotine, same intestinal epithelial and endothelial cells.
For data set [6] the following is noted: rodent in vivo; ref Yamazaki et al [35]; cited from earlier work.
Where [7] appears, read: human clinical data, ref Digard et al. [28].

“Also recorded” adds a separate entry of the source. Like-named read-outs stand apart in the source and are kept apart here.

In the case of `N.N.[Cl][Pt][Cl]` [Cisplatin, cisplatin], the “OCT2 expression in the Kidney Chip” value with OCT2 was “increased; also recorded: upregulation”.
Take `CN1CCC[C@H]1c1cccnc1` [Nicotine, nicotine]: the unbound in vivo in data set [1] (clinical studies) is recorded as 40%. Also, in data set [1] (setting [7]), the “Liver Intrinsic Clearance, CLint” value was 12.5 ml/min/kg.BW and the “Liver Secondary Intrinsic Clearance, CLint, sec” value is 0.74 ml/min/kq.BW. For the same compound, the “toxicity (LDH release) in first pass human Organ Chips” value in data set [2] is listed as “did not detect toxicity”. For the same compound, the “maximum level measured in the AV Reservoir” value in [3] was determined as 0.8 ± 0.08 µM. In addition, the “CYP3A4 activity in the Gut Chip” value in the data set with CYP3A4 was “remained unchanged”. The “intestinal barrier function of the Gut Chip, inulin tracer” value in the data set on Gut Chip was “could not detect any effect”. Moreover, the “intestinal barrier function of the Gut Chip, Cascade Blue tracer” value in the data set with Gut Chip (P < 0.03) is reported as “significantly increased”. The half-life in data set [4] was 10.6 min. Also, the “albumin production in the Liver Chip” value in the data set on Liver Chip was “remained unchanged”. Moreover, the “barrier change by TEER in static Transwell inserts” value in data set [5] is on record as “did not detect a barrier change”. In data set [6], the “Kidney Renal Clearance, CLR” value was 5.5 ml/min/kg.BW and the “Liver Intrinsic Clearance, CLint” value was 300 ml/min/kg.BW.

Usually half-life stands for the time needed for the level to fall by half in the phase considered. A lower half-life goes with rapid decline.
